According to patent publication US20050009748A1, “Compositions for delivering peptide YY and PYY agonists” (Emisphere Technologies, Inc., priority 2003, published 2005):
Several values for one entry are separate records, joined by “and”; a condition that tells them apart may be missing. Equal entries are not always repeated.

What was measured:
[1] = Solid oral delivery of PYY[3-36] in feed restricted rats (serum PYY radioimmunoassay); assay type: in vivo, Male Sprague Dawley rats; settings: 1 tablet per animal
Procedure: An oral dosing tube was used.
Blood samples were collected serially from the tail artery, by cardiac puncture, or as in this case by retro-orbitally, typically at time=0, 15, 30, 60 and 90 minutes.

[2] = Liquid oral delivery of PYY[3-36] in rats (oral gavage, serum PYY[3-36] radioimmunoassay); assay type: in vivo, Male Sprague-Dawley rats; settings: oral gavage solution, Delivery Agent 200 mg/kg, PYY[3-36] 0.3 mg/kg, 1 ml/kg
Procedure: SNAC monosodium salt, solid was dissolved in water. The pH of this solution was close to pH 7.5, so no pH adjustments were done. […] The final pH of these solutions was 7.5.
The pH was then lowered to 7.7 by adding HCl (5N). […] The final pH of these solutions varied between 7.5 and 7.6.
Each delivery agent compound (as the free acid or monosodium salts) was dissolved in water. The pH was adjusted to approximately 7.5 by adding HCl (5N) and NaOH (5N) as needed. […] The final pH of these solutions was approximately 7.5.
The typical dosing and sampling protocols were as follows. Male Sprague-Dawley rats weighing between 240-320 g were fasted up to a maximum 24 hours before the experiments and administered ketamine (44 mg/kg) and thorazine (1.5 mg/kg) by intramuscular injection before the test article administration. Afterwards, the anesthetized animals were administered the test article by oral gavage. A dosing group of five animals was administered one of the dosing solutions. For oral gavage (PO), an 11 cm Rusch 8 French catheter was adapted to a 1 ml syringe with a pipette tip. The syringe was filled with dosing solution by drawing the solution through the catheter, which was then wiped dry. The catheter was placed down the esophagus leaving 1 cm of tubing past the incisors. The dosing solution was administered by pressing the syringe plunger.
Blood samples were collected serially from the tail artery, or by cardiac puncture, typically at time=0, 15, 30, 45, 60 and 90 minutes. […] Results from the animals in each group were averaged for each time point.

[3] = rats, end of 7-day study, food found in the stomachs
Procedure: Food was removed prior to dosing and returned 30 minutes after dosing.
An oral dosing tube was used. The dosing tube was inserted into the rat's mouth and carefully threaded down the rats pharynx and esophagus about 8 cm to about 15 cm depending on the weight of the rat (typically about 11 cm). The solid dosage form was delivered into the distal esophagus and/or stomach by pressing the plunger of the oral dosing tube.
Food consumption was determined every 24 hours from the weight difference between the food given to and food left over by each rat. The body weight of each rat was determined every 24 hours.

[4] = Delivery Agent 100 mg/kg, PYY[3-36] 0.3 mg/kg
[5] = Delivery Agent 50 mg/kg, PYY[3-36] 0.3 mg/kg

| Molecule | Mean serum peak of PYY (pg/ml) ± SD [1, 4] [pg/mL] | Mean Peak Serum [PYY(3-36)] (pg/ml) ± SD [2] | further results |
| --- | --- | --- | --- |
| COc1ccc(C(=O)NCCCCCCCC(=O)O)c(O)c1 [Delivery Agent 4, 8-(2-hydroxy-4-methoxybenzoylamino)octanoic acid] | 1821.82 ± 1513.84 | 830.246 ± 71.382 pg/mL | – |
| O=C(O)CCCCCCCNC(=O)c1c(O)cccc1O [Delivery Agent 5, 8-(2,6-dihydroxybenzoylamino)octanoic acid] | – | 800.318 ± 40.61 pg/mL | – |
| O=C(O)CCCCCCCNC(=O)c1cc(Br)ccc1O [Delivery Agent 6, 8-(2-hydroxy-5-bromobenzoylamino)octanoic acid] | – | 812.946 ± 53.616 pg/mL | – |
| O=C(O)CCCCCCCNC(=O)c1cc(Cl)ccc1O [Delivery Agent 7, 8-(2-hydroxy-5-chlorobenzoylamino)octanoic acid] | 1064.18 ± 363.8 | 663.472 ± 135.394 pg/mL | Mean serum peak of PYY (pg/ml) ± SD [1, 5]: 725.96 ± 110.78 pg/mL; Mean serum peak of PYY (pg/ml) ± SD ([1]; Delivery Agent 100 mg/kg, PYY[3-36] 0 mg/kg (delivery agent alone)): 14.35 ± 19.71 pg/mL |
| O=C(O)CCCCCCCNC(=O)c1cc(I)ccc1O [Delivery Agent 8, 8-(2-hydroxy-5-iodobenzoylamino)octanoic acid] | – | 276.82 ± 425.45 pg/mL | – |
| Cc1ccc(O)c(C(=O)NCCCCCCCC(=O)O)c1 [Delivery Agent 9, 8-(2-hydroxy-5-methylbenzoylamino)octanoic acid] | 1309.8 ± 836.33 | 732.912 ± 266.578 pg/mL | – |
| O=C(O)CCCCCCCNC(=O)c1cc(F)ccc1O [Delivery Agent 10, 8-(2-hydroxy-5-fluorobenzoylamino)octanoic acid] | – | 846.416 ± 55.993 pg/mL | Mean serum peak of PYY (pg/ml) ± SD [1, 5]: 897.18 ± 549.5 pg/mL |
| O=C(O)CCCCCCCOc1cccc(O)c1 [Delivery Agent 12, 8-(3-hydroxyphenoxy)octanoic acid] | – | 845.682 ± 69.846 pg/mL and 1047.46 ± 36.93 pg/mL | – |
| O=C(O)CCCCCCCOc1ccc(O)cc1 [Delivery Agent 13, 8-(4-hydroxyphenoxy)octanoic acid] | – | 826.48 ± 379.12 pg/mL | – |
| N#Cc1ccccc1OCCCCCC(=O)O [Delivery Agent 14, 6-(2-cyanophenoxy)hexanoic acid] | – | 913.536 ± 33.688 pg/mL and 1083.38 ± 78.878 pg/mL | – |
| O=C(O)CCCCCCCOc1ccc(O)cc1 [Delivery Agent 17, 8-(4-hydroxyphenoxy)octanoate] | – | – | Mean serum peak of PYY (pg/ml) ± SD ([1]; Delivery Agent 100 mg/kg, PYY[3-36] 0.3 mg/kg, listed as 17): 897.18 ± 549.5 pg/mL |
| O=C(O)CCCCCCCOc1ccc(O)cc1 [Delivery Agent 18, 8-(4-hydroxyphenoxy)octanoate] | 1216.13 ± 661.31 | – | Mean serum peak of PYY (pg/ml) ± SD [1, 5]: 940.33 ± 1090.65 pg/mL |
| PYY[3-36] | – | – | effect on gastric emptying [3]: no effect on gastric emptying |
